According to US20060068118A1, “Silicon-containing treatments for solid substrates” (priority 2003, published 2006):

Key:
[1] = Reaction of hydrolyzed silanes with treatment enhancers, solution appearance; type: physicochemical
[2] = tested on: test microbes; assay: Dow Corning Test Method 0923 Dynamic Shake Flask Test (ASTM E-2149-01), Table I; type: cell-based; conditions: shingle, vs untreated controls
Experimental: (§1) The BPB test is a standardized test known as the Bromphenol Blue Extraction Method having a Dow Corning Corporate test number 0824, except that the test was modified in the following manner. The chlorinated solvent has been eliminated and the wavelength is 595 nm. Further, the Dow Corning® Q25211 has been substituted for the Triton RTM.X100 wetting agent of the test. What is measured is the diminution of the BPB absorbance at 595 nm relative to the BPB standard solution and it is reported in percent extraction. Antimicrobial efficacy was determined using the Dow Corning Test Method 0923 Dynamic Shake Flask Test (ASTM E-2149-01) unless otherwise stated.
Application technologies were compared for a shingle substrate at constant add levels and room temperature conditions. Samples were prepared as follows and compared. The Samples included: antimicrobial agent (AA) by itself (Sample 1) and the (AA) in 0.1M Na2C2O4 (Sample 2) with a polyoxyethylene nonylphenol (the surfactant). Sample 1 treated with Methyl Siliconate is Sample 3, Sample 1 treated with sodium silicate is Sample 4 and sample 1 treated with Everwood is Sample 5. The Samples were handled as in example 1 and tested.

[3] = tested on: E. Coli; assay: Dynamic Shake Flask Test, % E. Coli reduction; type: cell-based; conditions: Example 4, AA 1.25 mg/inch^2, vs untreated control substrates
Experimental: as §1
Studies were carried out to determine if this invention was applicable to various substrates in the building products area, such as Oriented Strand Board (OSB), vinyl siding, polymer wood composite decking and dimensional lumber. The application process was: samples were cut to 2 inches by 2 inches and weighed prior to application. A hand pump mist sprayer was used to treat the substrate. The applications of the silicate/siliconate and (AA) were kept to a minimum of less than 3 seconds application timne. Treated samples were next rinsed with copious cold water to remove any excess treatment material. There was no heating or other curing or drying of the samples.

## potassium methyl siliconate [DC-777]
[1]; treatment enhancer alone, 1.5% actives level, after 4 days of standing
  appearance on standing: white precipitate

## CCCCCCCCCCCCCCCCCC[N+](C)(C)CCC[Si](OC)(OC)OC.[Cl-] [Sample 1, N,N-dimethyl-N-Octadecyl-3-(trimethoxysilyl)propanaminium chloride]
[2]; AA Actives 0.50%
  % Reduction: 0%
[2]; AA Actives 1%
  % Reduction: 0%
[3]; OSB
  OSB % Red. ext. (% E. Coli Reduction): 31%
[3]; decking
  decking % Red. ext. (% E. Coli Reduction): 0%
[3]; shingle
  shingle % Red. ext. (% E. Coli Reduction): 11%
[3]; siding
  siding % Red. ext. (% E. Coli Reduction): 0%
[3]; wood
  wood % Red. ext. (% E. Coli Reduction): 21%

## CCO[Si](CC(C)C)(OCC)OCC [Sample Z-6043, i-butyltriethoxysilane]
[1]
  Appearance (at Time Min.): clear
  Appearance (at Time hours): clear
